According to ChEMBL document CHEMBL2086361, “Synthesis and biological activity of pyridopyridazin-6-one p38α MAP kinase inhibitors. Part 2” (Bioorg Med Chem Lett, 2012):

Key:
in vivo [1] = conditions: rat
in vivo [2] = conditions: dog
in vivo [3] = conditions: rhesus monkey
in vivo [4] = conditions: rat, iv, 1 mg/kg
in vivo [5] = conditions: dog, iv, 0.25 mg/kg
in vivo [6] = conditions: rhesus monkey, iv, 1 mg/kg
in vivo [7] = conditions: rat, plasma
in vivo [8] = conditions: dog, plasma
in vivo [9] = conditions: rhesus monkey, plasma
in vivo [10] = conditions: rat, po, 2 mg/kg
in vivo [11] = conditions: dog, po, 2 mg/kg
in vivo [12] = conditions: rhesus monkey, po, 2 mg/kg

With `Cc1nnc(-c2ccc(F)c(-c3c(=O)ccn4nc(Oc5ccc(F)cc5F)ccc34)c2)o1` as the compound, how does the half-life (in vivo [1]) read?
The half-life was 4.4 h.

What about the half-life (in vivo [2]) of the same compound?
Its half-life is 4.5 h.

What about the half-life (in vivo [3]) of the same compound?
The half-life was 6.9 h.

And the clearance (in vivo [4])?
The clearance was 2 mL/min/kg.

What about the clearance (in vivo [5]) of the same compound?
Its clearance is 2.8 mL/min/kg.

What about the clearance (in vivo [6]) of the same compound?
Its clearance is 2 mL/min/kg.

And the AUC (in vivo [7])?
The AUC was 20 µM·h.

What about the AUC (in vivo [8]) of the same compound?
Its AUC is 2.1 µM·h.

And the AUC (in vivo [9])?
The AUC was 5.6 µM·h.

And the bioavailability (in vivo [10])?
The bioavailability was 93%.

What about the bioavailability (in vivo [11]) of the same compound?
The bioavailability was 15%.

And the bioavailability (in vivo [12])?
The bioavailability was 31%.
